MIC data for 15 compounds are collected here from ChEMBL document CHEMBL1151784, “Antibiotic evaluation and in vivo analysis of alkynyl Coenzyme A antimetabolites in Escherichia coli” (2008).

≈ marks a conversion by molar mass, not a printed value.

In one assay the test system is Escherichia coli. As to the kind of experiment: Antibacterial activity against Escherichia coli K12 in M9 minimal medium after 24 hrs by broth dilution method. The conditions noted are these: K12, 24 h. The assay is classed as functional. A general note: Broth dilution looks for growth in wells or tubes with falling amounts of substance.
Regarding `C#CCCCCNC(=O)CCNC(=O)[C@H](O)C(C)(C)CO`, 500 µM (≈ 149 µg/mL) was the least that counted as inhibitory (MIC).
The same measure, in the same setting: then `C#CCNC(=O)[C@H](O)C(C)(C)CO`, with 500 µM (≈ 92.6 µg/mL); and `C#CCCNC(=O)CCNC(=O)[C@H](O)C(C)(C)CO`, with 7.5 µM (≈ 2.03 µg/mL).
The same measure, in the same setting: the same measure for `CC(C)(CO)[C@@H](O)C(=O)NCCC(=O)NCCN=[N+]=[N-]`: more than 500 µM.
Same read-out and setting: the same measure for `CCCCCNC(=O)CCNC(=O)[C@H](O)C(C)(C)CO`: 6 µM (≈ 1.73 µg/mL); for `C#CCCC(=O)NCCNC(=O)CCNC(=O)[C@H](O)C(C)(C)CO`: more than 500 µM; for `C#CCNC(=O)CCNC(=O)[C@H](O)C(C)(C)CO`: 4 µM (≈ 1.03 µg/mL).
Compound `CCCNC(=O)CCNC(=O)[C@H](O)C(C)(C)CO` yielded an MIC of 1 µM (≈ 0.26 µg/mL).
Still for that read-out and setting: then `C#CC(=O)NCCNC(=O)CCNC(=O)[C@H](O)C(C)(C)CO`, with more than 500 µM; and `C#CCCCNC(=O)CCNC(=O)[C@H](O)C(C)(C)CO`, with 15 µM (≈ 4.27 µg/mL); and `CCC(=O)OCCNC(=O)CCNC(=O)[C@H](O)C(C)(C)CO`, with 500 µM (≈ 159 µg/mL).
On the same count and under the same terms, then `CCOC(=O)NCCNC(=O)CCNC(=O)[C@H](O)C(C)(C)CO`, with more than 500 µM; and `C=CCNC(=O)CCNC(=O)[C@H](O)C(C)(C)CO`, with 3 µM (≈ 0.775 µg/mL).
On to `C=CC(=O)NCCNC(=O)CCNC(=O)[C@H](O)C(C)(C)CO`, for which inhibition of growth (MIC) required 500 µM (≈ 158 µg/mL).
Same read-out and setting: then `CCC(=O)NCCNC(=O)CCNC(=O)[C@H](O)C(C)(C)CO`, with more than 500 µM.

A further assay has as its system Escherichia coli. Nature of the assay: Antibacterial activity against Escherichia coli K12 in tryptone broth after 24 hrs by broth dilution method. The class given is functional. The conditions noted are these: K12, 24 h.
As to `C#CCCCCNC(=O)CCNC(=O)[C@H](O)C(C)(C)CO`, the minimum inhibitory concentration (MIC) was more than 500 µM.
Same read-out and setting: the same measure for `C#CCNC(=O)[C@H](O)C(C)(C)CO`: more than 500 µM.
In turn, `C#CCCNC(=O)CCNC(=O)[C@H](O)C(C)(C)CO` registered an MIC of more than 500 µM.
Same read-out and setting: the same measure for `CC(C)(CO)[C@@H](O)C(=O)NCCC(=O)NCCN=[N+]=[N-]`: more than 500 µM; for `CCCCCNC(=O)CCNC(=O)[C@H](O)C(C)(C)CO`: 50 µM (≈ 14.4 µg/mL); for `C#CCCC(=O)NCCNC(=O)CCNC(=O)[C@H](O)C(C)(C)CO`: more than 500 µM.
Same read-out and setting: the same measure for `C#CCNC(=O)CCNC(=O)[C@H](O)C(C)(C)CO`: more than 500 µM; for `CCCNC(=O)CCNC(=O)[C@H](O)C(C)(C)CO`: 500 µM (≈ 130 µg/mL).
On the same count and under the same terms, the same measure for `C#CC(=O)NCCNC(=O)CCNC(=O)[C@H](O)C(C)(C)CO`: more than 500 µM; for `C#CCCCNC(=O)CCNC(=O)[C@H](O)C(C)(C)CO`: more than 500 µM; for `CCC(=O)OCCNC(=O)CCNC(=O)[C@H](O)C(C)(C)CO`: more than 500 µM.
`CCOC(=O)NCCNC(=O)CCNC(=O)[C@H](O)C(C)(C)CO` had an MIC of more than 500 µM.
Still for that read-out and setting: the same measure for `C=CCNC(=O)CCNC(=O)[C@H](O)C(C)(C)CO`: more than 500 µM; for `C=CC(=O)NCCNC(=O)CCNC(=O)[C@H](O)C(C)(C)CO`: more than 500 µM; for `CCC(=O)NCCNC(=O)CCNC(=O)[C@H](O)C(C)(C)CO`: more than 500 µM.

The test system of a further assay is Escherichia coli. Nature of the assay: Antibacterial activity against Escherichia coli K12 in M9 minimal medium after 24 hrs by broth dilution method in presence of pantothenate. The assay is classed as functional. To be noted: K12, 24 h.
As to `C#CCCNC(=O)CCNC(=O)[C@H](O)C(C)(C)CO`, the minimal inhibitory concentration (MIC) was more than 500 µM.
In the case of `CCCCCNC(=O)CCNC(=O)[C@H](O)C(C)(C)CO`, the MIC is 500 µM.
The same measure, in the same setting: the same measure for `C#CCNC(=O)CCNC(=O)[C@H](O)C(C)(C)CO`: more than 500 µM.
The same measure, in the same setting: then `CCCNC(=O)CCNC(=O)[C@H](O)C(C)(C)CO`, with 500 µM; and `C#CCCCNC(=O)CCNC(=O)[C@H](O)C(C)(C)CO`, with more than 500 µM.
On the same count and under the same terms, then `C=CCNC(=O)CCNC(=O)[C@H](O)C(C)(C)CO`, with 250 µM.

In the next assay the test system is Escherichia coli. Nature of the assay: Antibacterial activity against Escherichia coli K12 in M9 minimal medium after 24 hrs by broth dilution method in presence of beta-alanine. The class given is functional. The conditions noted are these: K12, 24 h.
For the compound `C#CCCNC(=O)CCNC(=O)[C@H](O)C(C)(C)CO`, the minimum inhibitory concentration (MIC) was more than 500 µM.
Still for that read-out and setting: the same measure for `CCCCCNC(=O)CCNC(=O)[C@H](O)C(C)(C)CO`: 250 µM; for `C#CCNC(=O)CCNC(=O)[C@H](O)C(C)(C)CO`: more than 500 µM.
Same read-out and setting: then `CCCNC(=O)CCNC(=O)[C@H](O)C(C)(C)CO`, with 250 µM; and `C#CCCCNC(=O)CCNC(=O)[C@H](O)C(C)(C)CO`, with more than 500 µM; and `C=CCNC(=O)CCNC(=O)[C@H](O)C(C)(C)CO`, with 125 µM.

One may read the MIC as the lowest concentration found to suppress growth.
